This note sets out measurements from patent US12528816B2, “Substituted imidazo [1,2-b] pyridazines and [1, 2, 4] triazolo [ 4,3-b] pyridazines as camkii inhibitors” (Cardurion Pharmaceuticals, INC., priority 2020, dated 2026).

For the assay, the target named is T1, human CaMKIIδ (Homo sapiens, UniProt Q13557).
T1 construct: Full-length, glutathione-S-transferase(GST)-tagged, human CaMKIIδ was purchased from Carna Biosciences; purchased Carna Biosciences (CaMKIIδ); Wako Pure Chemical Industries (calmodulin) 02-111
Briefly: Evaluation of in vitro CaMKII inhibitory activity (binding assay, TR-FRET). As to conditions: in vitro CaMKII inhibitory activity (binding assay), human CaMKIIδ; read-out: Act. Put shortly:
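Inhibitors, in eight concentrations of 4-fold dilution, were incubated 1 h at room temperature with a protein–fluorescent probe premix preformed 30 min on ice, containing calmodulin and terbium anti-GST antibody. Displacement read by TR-FRET in duplicate; IC50 by logistic fitting.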
Turning to `C[C@@H](Cn1cnnn1)Oc1ccnc(-c2ccc3ncn(-c4cc(F)ccc4C#N)c3n2)c1` [compound 330], the IC50 is < 10 nM.
Under `C[C@@H](Cn1cnnn1)Oc1cccc(-c2ccc3ncc(-c4cc(F)cn(C)c4=O)n3n2)c1` [compound 331] stands < 10 nM.
The result for `COc1ncccc1-c1cnc2ccc(-c3cccc(O[C@@H](C)Cn4cnnn4)c3)nn12` [compound 332] reads < 10 nM.
Under `Cc1cc(-c2cnc3ccc(-c4cccc(O[C@@H](C)Cn5cnnn5)c4)nn23)c(C#N)cn1` [compound 333] stands < 10 nM; under `C[C@@H](Cn1cnnn1)Oc1cccc(-c2ccc3ncc(-c4cc(Cl)cn(C)c4=O)n3n2)c1` [compound 334], < 10 nM; under `Cc1cc(-c2cnc3ccc(-c4cccc(O[C@@H](C)Cn5cnnn5)c4)nn23)c(=O)n(C)c1` [compound 335], < 10 nM.
In the case of `C[C@@H](Cn1cnnn1)Oc1cccc(-c2ccc3ncc(-c4cc(F)cnc4OCC(F)F)n3n2)c1` [compound 336], the IC50 is < 10 nM.
The result for `C[C@@H](Cn1cnnn1)Oc1cccc(-c2ccc3ncc(-c4cc(F)cn(CC(F)F)c4=O)n3n2)c1` [compound 337] reads < 10 nM; that for `C[C@@H](Cn1cnnn1)Oc1cccc(-c2ccc3ncc(-c4cc(F)cnc4OCC(F)(F)F)n3n2)c1` [compound 338], < 10 nM.
As for `C[C@@H](Cn1cnnn1)Oc1cccc(-c2ccc3ncc(-c4cc(F)cn(CC(F)(F)F)c4=O)n3n2)c1` [compound 339], the IC50 was < 10 nM.
In the case of `C[C@@H](Cn1cnnn1)Oc1cccc(-c2ccc3ncc(-c4cccn(CC(F)F)c4=O)n3n2)c1` [compound 340], the IC50 is < 10 nM.
With `C[C@@H](Cn1cnnn1)Oc1cccc(-c2ccc3ncc(-c4cccn(CCOCC(F)(F)F)c4=O)n3n2)c1` [compound 341], the IC50 was < 10 nM.
As for `C[C@@H](Cn1cnnn1)Oc1cc(-c2ccc3ncn(-c4cc(F)ccc4C#N)c3n2)ccn1` [compound 343], the IC50 is < 10 nM.
Under `C[C@@H](Cn1cnnn1)Oc1cccc(-c2ccc3ncc(-c4nccc(OCC(F)(F)F)c4C#N)n3n2)c1` [compound 344] stands < 10 nM; under `C[C@@H](Cn1cnnn1)Oc1ccnc(-c2ccc3ncn(-c4cc(F)ccc4C#N)c3n2)n1` [compound 346], 10 to 100 nM.
On to `C[C@@H](Cn1cnnn1)Oc1cccc(-c2ccc3ncc(-c4cc(=O)n(C)cc4C#N)n3n2)c1` [compound 348], for which the IC50 is < 10 nM.
The result for `C[C@@H](Cn1cnnn1)Oc1cccc(-c2ccc3ncc(-c4nc(C(F)(F)F)ccc4C#N)n3n2)c1` [compound 349] reads 10 to 100 nM.
As for `C[C@@H](Cn1cnnn1)Oc1cccc(-c2ccc3ncc(-c4nc(N(C)C)ccc4C#N)n3n2)c1` [compound 350], the IC50 was 10 to 100 nM.
On to `COc1cc(-c2cnc3ccc(-c4cccc(O[C@@H](C)Cn5cnnn5)c4)nn23)c(F)cn1` [compound 351], for which the IC50 was < 10 nM.
The result for `C[C@@H](Cn1cnnn1)Oc1cccc(-c2ccc3ncc(-c4nccc(OCC5COC5)c4C#N)n3n2)c1` [compound 352] reads < 10 nM.
Under `COc1ccnc(-n2cnc3ccc(-c4cccc(O[C@@H](C)Cn5cnnn5)c4)nc32)c1C#N` [compound 353] stands < 10 nM; under `COc1ccnc(-n2cnc3ccc(-c4ccc(F)c(O[C@@H](C)Cn5cnnn5)c4)nc32)c1C#N` [compound 355], < 10 nM; under `C[C@@H](Cn1cnnn1)Oc1cccc(-c2ccc3ncc(-c4nccc(N(C)C)c4C#N)n3n2)c1` [compound 356], < 10 nM.
The result for `C[C@@H](Cn1cnnn1)Oc1cc(F)cc(-c2ccc3ncc(-c4cccn(C)c4=O)n3n2)c1` [compound 357] reads < 10 nM.
Consider `C[C@@H](Cn1cnnn1)Oc1cccc(-c2ccc3ncc(-c4cc(F)cnc4OCC#N)n3n2)c1` [compound 359], for which the IC50 was < 10 nM.
Under `C[C@@H](Cn1cnnn1)Oc1cccc(-c2ccc3ncc(-c4cc(F)cn(CC#N)c4=O)n3n2)c1` [compound 360] stands < 10 nM; under `CNc1ccc(C#N)c(-c2cnc3ccc(-c4cccc(O[C@@H](C)Cn5cnnn5)c4)nn23)n1` [compound 361], < 10 nM.
Under `COc1ncc(C#N)c(-c2cnc3ccc(-c4cccc(O[C@@H](C)Cn5cnnn5)c4)nn23)n1` [compound 362] stands < 10 nM.
Under `C[C@@H](Cn1cnnn1)Oc1cccc(-c2ccc3ncc(-c4nccc(N5CCCC5)c4C#N)n3n2)c1` [compound 363] stands 10 to 100 nM.
In the case of `C[C@@H](Cn1cnnn1)Oc1cccc(-c2ccc3ncc(-c4[nH]c(=O)ccc4C#N)n3n2)c1` [compound 364], the IC50 was < 10 nM.
The result for `CCOc1ncnc(-c2cnc3ccc(-c4cccc(O[C@@H](C)Cn5cnnn5)c4)nn23)c1C#N` [compound 365] reads < 10 nM; that for `CCOc1ccnc(-c2cnc3ccc(-c4cccc(O[C@@H](C)Cn5cnnn5)c4)nn23)c1C#N` [compound 366], < 10 nM.
The result for `C[C@@H](Cn1cnnn1)Oc1cccc(-c2ccc3ncc(-c4nccc(NCC(F)F)c4C#N)n3n2)c1` [compound 367] reads 10 to 100 nM; that for `C[C@@H](Cn1cnnn1)Oc1cc(-c2ccc3ncn(-c4ncccc4C#N)c3n2)ccc1Cl` [compound 368], 10 to 100 nM; that for `C[C@@H](Cn1cnnn1)Oc1cccc(-c2ccc3ncc(-c4nccc(NCC(F)(F)F)c4C#N)n3n2)c1` [compound 369], 10 to 100 nM.
Regarding `C[C@@H](Cn1cnnn1)Oc1cccc(-c2ccc3ncc(-c4nccc(N5CCC5)c4C#N)n3n2)c1` [compound 370], the IC50 fell in the range of 10 to 100 nM.
Under `CCc1ccc(C#N)c(-c2cnc3ccc(-c4cccc(O[C@@H](C)Cn5cnnn5)c4)nn23)n1` [compound 371] stands < 10 nM; under `C[C@@H](Cn1cnnn1)Oc1cccc(-c2ccc3ncc(-c4ncnc(N(C)C)c4C#N)n3n2)c1` [compound 372], 10 to 100 nM; under `C[C@@H](Cn1cnnn1)Oc1cccc(-c2ccc3nnc(-c4ccccc4C#N)n3n2)c1` [compound 373], > 100 nM.
Under `CCOc1ccnc(-n2cnc3ccc(-c4cccc(O[C@@H](C)Cn5cnnn5)c4)nc32)c1C#N` [compound 374] stands < 10 nM; under `CCOc1ccnc(-n2cnc3ccc(-c4ccnc(O[C@@H](C)Cn5cnnn5)c4)nc32)c1C#N` [compound 375], 10 to 100 nM; under `C[C@@H](Cn1cnnn1)Oc1cccc(-c2ccc3ncc(-c4nccc(N(C)CC(F)F)c4C#N)n3n2)c1` [compound 376], 10 to 100 nM.
The result for `COc1ccnc(-c2c(F)nn3ccc(-c4cccc(O[C@@H](C)Cn5cnnn5)c4)nc23)c1C#N` [compound 377] reads 10 to 100 nM; that for `Cc1ccnc(-c2cnc3ccc(-c4cccc(O[C@@H](C)Cn5cnnn5)c4)nn23)c1C#N` [compound 378], < 10 nM; that for `CCc1ccnc(-c2cnc3ccc(-c4cccc(O[C@@H](C)Cn5cnnn5)c4)nn23)c1C#N` [compound 380], < 10 nM.
Turning to `C[C@@H](Cn1cnnn1)Oc1cccc(-c2ccc3ncc(-c4nc[nH]c(=O)c4C#N)n3n2)c1` [compound 381], the IC50 was < 10 nM.
The result for `C[C@@H](Cn1cnnn1)Oc1cccc(-c2ccc3ncn(-c4cc(C(F)F)ccc4C#N)c3n2)n1` [compound 382] reads > 100 nM.
For the compound `C[C@@H](Cn1cnnn1)Oc1cncc(-c2ccc3ncn(-c4cc(C(F)F)ccc4C#N)c3n2)n1` [compound 384], the IC50 is > 100 nM.
Under `C[C@@H](Cn1cnnn1)Oc1cccc(-c2ccc3ncn(-c4cc(OC(F)F)ccc4C#N)c3n2)n1` [compound 385] stands > 100 nM; under `C[C@@H](Cn1cnnn1)Oc1cccc(-c2ccc3ncc(-c4nc(Cl)ccc4C#N)n3n2)c1` [compound 386], < 10 nM; under `C[C@@H](Cn1cnnn1)Oc1cccc(-c2ccc3nnc(-c4cc(F)ccc4C#N)n3n2)c1` [compound 387], > 100 nM.
Under `C[C@@H](Cn1cnnn1)Oc1cccc(-c2ccc3ncc(-c4nc(C(F)F)ccc4C#N)n3n2)c1` [compound 388] stands < 10 nM; under `CC(=O)c1ccc(C#N)c(-c2cnc3ccc(-c4cccc(O[C@@H](C)Cn5cnnn5)c4)nn23)n1` [compound 389], 10 to 100 nM; under `CC(O)c1ccc(C#N)c(-c2cnc3ccc(-c4cccc(O[C@@H](C)Cn5cnnn5)c4)nn23)n1` (stereo partly shown) [compound 390], < 10 nM.
The result for `C[C@@H](Cn1cnnn1)Oc1cccc(-c2ccc3nnc(-c4ncccc4C#N)n3n2)c1` [compound 391] reads > 100 nM.
Consider `C[C@@H](Cn1cnnn1)Oc1cccc(-c2ccc3ncc(-c4ncnc(N)c4C#N)n3n2)c1` [compound 394], for which the IC50 was 10 to 100 nM.
Consider `C[C@@H](Cn1cnnn1)Oc1cccc(-c2ccc3ncn(-c4cccc(C(F)F)c4C#N)c3n2)c1` [compound 395], for which the IC50 was < 10 nM.
The result for `COc1cc(F)cc(-n2cnc3ccc(-c4cncc(O[C@@H](C)Cn5cnnn5)n4)nc32)c1C#N` [compound 396] reads < 10 nM; that for `C[C@@H](Cn1cnnn1)Oc1cccc(-c2ccc3ncn(-c4cccc(C(F)F)c4C#N)c3n2)n1` [compound 397], > 100 nM.
In the case of `C[C@@H](Cn1cnnn1)Oc1cccc(-c2ccc3ncn(-c4cccc(OC(F)F)c4C#N)c3n2)n1` [compound 398], the IC50 lay in the range of 10 to 100 nM.
The result for `COc1nccc(-c2cnc3ccc(-c4cccc(O[C@@H](C)Cn5cnnn5)c4)nn23)c1C#N` [compound 400] reads < 10 nM.
Under `C[C@@H](Cn1cnnn1)Oc1cccc(-c2ccc3ncc(-c4nccc(C(F)F)c4C#N)n3n2)c1` [compound 401] stands < 10 nM; under `COc1ncnc(-c2cnc3ccc(-c4ccc(F)c(O[C@@H](C)Cn5cnnn5)c4)nn23)c1C#N` [compound 402], < 10 nM.
Under `COc1nccc(-c2cnc3ccc(-c4cccc(O[C@@H](C)Cn5cnnn5)n4)nn23)c1C#N` [compound 403] stands < 10 nM.
